In paper PMC10714390, “Quinoline Compounds Targeting the c-Ring of ATP Synthase Inhibit Drug-Resistant Pseudomonas aeruginosa” (ACS Infectious Diseases, 2023):

What was measured:
E. coli (ATCC 25922) = assay: Antimicrobial susceptibility (broth microdilution), EC 25922; assay type: cell-based, Escherichia coli; conditions: for MIC: Escherichia coli, ATCC25922, read-out: antibacterial activity (MIC) EC 25922; for antibacterial activity in words, EC 25922: summary of Table 1
Description: (§1) The following are general steps, unless otherwise noted. All steps were completed using aseptic techniques. All media and glassware were sterilized via an autoclave at 121 °C for 60 min. All agitation occurred at 160 rpm in a temperature-controlled console shaker (Excella E25) at 37 °C. Full-strength tryptic soy broth (TSB) was made by dissolving 30 g of BD Bacto TSB powder in 1 L of deionized water. Purchased and acquired bacterial strains used were E. coli (ATCC 25922), P. aeruginosa (ATCC 9027), drug-resistant P. aeruginosa from ATCC Panel MP-23 (BAA 2108, BAA 2109, BAA 2110), and P. aeruginosa efflux knockout GKCW120 (PΔ6)[6] provided by Zgurskaya and co-workers at the University of Oklahoma.
(§2) Susceptibility testing was performed in biological triplicate using the broth microdilution method as outlined by the Clinical and Laboratory Standards Institute. […] Briefly, to each well, 1 μL of compound in DMSO, 89 μL of TSB, and 10 μL of bacterial inoculum, grown from a single colony in 10 mL of TSB for 4–6 h, were added. After incubation for 12–15 h at 37 °C, absorbance at 590 nm was read on a Biotek Synergy HTX Multimode plate reader. Data were processed by background subtracting the media absorbance and then normalizing the data to full bacterial growth with the vehicle only. MIC is defined as the lowest concentration of antibiotic or antibiotic/adjuvant combination that achieves ≥85% growth inhibition, which corresponds to no visible growth.
(§3) Initial antibacterial activity screen of compounds 4, 5, and S1-S6
(§4) Compounds 4, 5, and S1-S6 were screened for initial antibiotic activity against a susceptible laboratory strain of EC (designated EC 25922), and non-virulent, biofilm forming strain of PA (designated PA 9027), and PD6 (efflux knockout strain6) at 128 µg/mL in DMSO. Sterilization and Antimicrobial Susceptibility Assay procedures utilized were the same as described in the methods.
(§5) Table S1. Antibacterial activity screening results for compounds 4, 5, and S1-S6 at 128 µg/mL
(§6) Table S1. Antibacterial activity screening results for compounds 4, 5, and S1-S6 at 128 µg/mL.

[1] = test system: P. aeruginosa (ATCC 9027); assay: Antimicrobial susceptibility (broth microdilution), PA 9027; assay type: cell-based, Pseudomonas aeruginosa; conditions: for MIC: Pseudomonas aeruginosa, ATCC9027, read-out: antibacterial activity (MIC) PA 9027; for antibacterial activity in words, PA 9027: summary of Table 1
Description: as §1, §2, §3, §4, §5, §6

[2] = test system: P. aeruginosa efflux knockout GKCW120 (PΔ6); assay: Antimicrobial susceptibility (broth microdilution), PΔ6 efflux knockout; assay type: cell-based, Pseudomonas aeruginosa; conditions: for Antibacterial activity screening result, P∆6: at 128 µg/mL in DMSO; for antibacterial activity (MIC) PΔ6: n = 3, >85% reduction in growth at OD 590 nm; for antibacterial activity in words, PΔ6: summary of Table 1
Description: as §1, §2, §3, §4, §5, §6

[3] = test system: drug-resistant P. aeruginosa BAA 2110; assay: Antimicrobial susceptibility (broth microdilution), BAA 2110; assay type: cell-based, Pseudomonas aeruginosa; conditions: for MIC: Pseudomonas aeruginosa, BAA2110, read-out: antibacterial activity (MIC) BAA 2110
Description: as §1, §2

[4] = biological target: T1, PA ATP synthase cIle65Phe mutant (Pseudomonas aeruginosa, UniProt Q9HT15, I65F); assay: NADH-driven ATP synthesis inhibition, DK8/pASH20 cI65F membrane vesicles; assay type: biochemical; conditions: for Hill coefficient of dose response fit, DK8/pASH20 cI65F vesicles: inhibition of ATP synthesis activity
T1 construct: expressed in transfected cells; host or cells: E. coli K-12 DK8 transformed with pASH20 carrying mutated atpE
Description: P. aeruginosa (ATCC 9027) was streaked onto a 10% TSB agar plate and incubated at room temperature for 72 h. A single colony was resuspended in 100 μL of H2O, and 5 μL was used as the DNA template for PCR with Q5 polymerase (NEB) and […] each of forward and reverse primers. Primers were complementary to regions flanking the atp operon and included sequences for HindIII and NdeI restriction sites (see the SI for primer sequences). The resulting 6.9 kbp DNA fragment was digested with HindIII and NdeI and ligated into digested vector pBR322 (New England Biolabs). The resultant pASH20(-i) plasmid contains a partial atpI gene. To complete the atpI gene, the HindII-XhoI fragment of pASH20(-i) was replaced with a synthetic fragment with a complete atpI (Twist Bioscience) to yield pASH20. The sequence of the entire operon was verified by Sanger DNA sequencing through the ligation sites. Subunit c mutations were introduced by exchanging the XhoI-BamHI fragment containing atpE with a synthetic fragment containing mutated atpE (Twist Bioscience).
Vesicles were prepared from P. aeruginosa and transformed E. coli cells as previously described.[22] Briefly, cells were grown in LB liquid medium at 37 °C with shaking and harvested by centrifugation after 7 h of growth. Cultures of transformant E. coli included 100 μg/mL ampicillin. Cells were disrupted in TMG buffer (50 mM Tris-HCl, MgCl2, 10% (v/v) glycerol, pH 7.5) using an Avestin B15 homogenizer at 19,000 psi. After unbroken cells and debris were cleared by centrifugation at 9000g, inverted vesicles were collected by centrifugation at 193,000g, resuspended in TMG buffer, and stored at −80 °C. Protein concentrations were determined using a modified Lowry assay.[25]
(§7) Continuous ATP synthesis activity of inverted membrane vesicles was measured using a luciferin/luciferase luminescence assay as previously described.[22] Inhibition of ATP synthesis activity by test compounds was determined using an end point assay essentially as previously described.[18],[26] In this assay, the synthesis reaction was initiated by 2.5 mM NADH, proceeded for 10 min, and was stopped with 1% trichloroacetic acid, 2 mM CCCP, and 10 mM EDTA. Samples from each reaction were diluted 500-fold prior to the addition of luciferase since quinoline compounds are known to inhibit luciferase.[27] This dilution was sufficient to minimize inhibition of luciferase (Figure S4). Each replicate set included a positive control containing DMSO with no compound and a negative control containing carbonyl cyanide m-chlorophenyl hydrazone. Luminescence values were corrected for the background by subtracting the negative control and then normalized to the positive control within the same replicate. Dose–response curves were fit using eq 1, where activity is the relative ATP synthesis activity, [I] is the concentration of inhibitor in μg/mL, and n is the Hill coefficient. [drawing 1] 1

Solubility in DMSO = assay type: physicochemical
luciferase = luciferase (Photinus pyralis, UniProt P08659); assay: Inhibition of luciferase by quinoline compounds; assay type: biochemical; conditions: after 500-fold dilution; Figure S4
Description: as §7
Table S2: All IC50 values and Hill coefficients for dose response fits of inhibition of ATP synthesis activity. […]
luciferase) at the indicated concentrations, and luminescence was measured after the addition of ATP to […]

Chain of luciferase (P08659 whole entry): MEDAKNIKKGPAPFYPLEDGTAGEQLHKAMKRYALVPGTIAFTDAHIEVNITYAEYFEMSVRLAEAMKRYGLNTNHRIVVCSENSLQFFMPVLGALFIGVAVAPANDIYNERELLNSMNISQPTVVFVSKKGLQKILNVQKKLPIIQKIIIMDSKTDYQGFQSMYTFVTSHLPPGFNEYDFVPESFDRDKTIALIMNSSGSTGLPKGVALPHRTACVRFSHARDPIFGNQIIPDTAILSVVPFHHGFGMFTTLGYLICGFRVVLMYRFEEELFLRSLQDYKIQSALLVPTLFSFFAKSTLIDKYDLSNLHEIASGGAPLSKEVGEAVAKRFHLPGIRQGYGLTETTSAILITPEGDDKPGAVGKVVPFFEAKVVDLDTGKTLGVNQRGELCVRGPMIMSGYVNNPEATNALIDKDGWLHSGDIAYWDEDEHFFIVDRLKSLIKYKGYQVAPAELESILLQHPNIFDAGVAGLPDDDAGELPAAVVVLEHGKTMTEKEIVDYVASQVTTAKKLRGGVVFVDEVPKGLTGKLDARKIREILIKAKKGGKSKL

Compound | MIC (E. coli (ATCC 25922)) | antibacterial activity in words, EC 25922 (E. coli (ATCC 25922)) | MIC [1] | antibacterial activity in words, PA 9027 [1] | Antibacterial activity screening result, P∆6 [2] | antibacterial activity (MIC) PΔ6 [2] | antibacterial activity in words, PΔ6 [2] | MIC [3] | IC50 [4] | fold reduction in IC50, cIle65Phe mutant relative to wild type ([4]; ATP synthesis inhibition, DK8/pASH20 vesicles) | Hill coefficient of dose response fit, DK8/pASH20 cI65F vesicles [4] | solubility in dimethyl sulfoxide (DMSO) (Solubility in DMSO; at 128 μg/mL) | solubility in dimethyl sulfoxide (DMSO) (Solubility in DMSO; at 256 μg/mL) | inhibition of luciferase, in words (luciferase) | Antibacterial activity screening result, EC 25922 (E. coli (ATCC 25922); at 128 µg/mL in DMSO) | antibacterial activity in words, BAA 2110 ([3]; summary of Table 1)
CSc1nc2ccccc2cc1CNCc1ccc(CN(C)C)cc1 [Compound 4, N,N-Dimethyl-1-(4-((((2-(methylthio)quinolin-3-yl)methyl)amino)methyl)phenyl)methanamine] | 256 µg/mL | weakly inhibit | > 256 µg/mL | inactive | I | 64 to 128 µg/mL | weakly inhibit | > 256 µg/mL | 12.8 µM | greater than 6 fold | 1.4 | very soluble | fully soluble | did not significantly inhibit | – | –
CN(C)Cc1ccc(CNCc2cc3ccccc3nc2SCc2ccccc2)cc1 [Compound 5, 1-(4-((((2-(Benzylthio)quinolin-3-yl)methyl)amino)methyl)phenyl)-N,N-dimethylmethanamine] | 64 µg/mL | more potent | > 128 µg/mL | inactive | I | 16 µg/mL | more potent | > 128 µg/mL | 8.18 µM | – | 1.8 | very soluble | partially soluble | did not significantly inhibit | I | inactive
